# Test results from patent US6436996B1, “Modulation of nitric oxide production” (Duke University, priority 1997, dated 2002).
# “Also recorded” adds a separate entry of the source.
# Tested on: human monocyte-derived macrophage cells
# Assay: Nitrite (NO) production in gamma-IFN-primed human monocyte-derived macrophages, Griess reaction
# Format: cell-based
# Conditions: for nitrite levels compared to poly I:C treatment alone: Aβ peptide (5 μM) plus APOE (10 nM) plus poly I:C (50 μg/ml); for change in nitrite levels compared to untreated human MDMs: Aβ peptide alone, 1 to 10 μgM
# Protocol: Cell Cultures: Human monocytes from normal, adult volunteers were generously provided by Dr. D. Webb, Center for Biologics Evaluation and Research, NIH, Bethesda, Md. Elutriated monocytes were cultured in Dulbecco's Modified Eagle Medium (DMEM) containing 20% fetal calf serum, 10% human […] (ABI Technologies, Columbia, Md.) and […] human M-Colony Stimulating Factor (M-CSF, Genzyme, Boston, Mass.) at 37° C. in a humidified atmosphere of 5% CO2, 95% air. After 5 to 7 days, morphological changes including spreading and branching of the cells signaled differentiation from monocytes to macrophages and are now commonly called “Monocyte-Derived Macrophages” (MDMs). MDM cells were removed from the flasks by gentle trypsinization, plated at 40,000 cells/well into 96 well microtiter plates and allowed to recover overnight. These MDM cells were then primed by exposure to 1000 U/ml recombinant human gamma interferon (gamma-IFN, Sigma Chemical Co., St. Louis, Mo.) diluted into HL-1 serum free media (Hycor Biomedical Include, Irvine, Calif.). At the end of 12 h priming with gamma-IFN, the priming media was replaced with HL-1 serum free media before experimental treatments as listed in the text. Following experimental treatments, the media was removed and assayed for nitrite levels using the Griess reaction [Colton, C. et al., Mol. Chem. Neuropathol. 28, 15-20 (1996)].
# Treatment Factors and Conditions: M-CSF-differentiated and gamma-IFN-primed monocyte-derived macrophage cells were treated by incubation with varying concentrations of Aβ 1-40, its reverse sequence Aβ 40-1 and a non-toxic Aβ fragment, Aβ 1-28 (Bachem, Torrance, Calif.). Aβ peptides were diluted into sterile, double-distilled water and allowed to aggregate at room temperature for 48 h and then stored at −80° C. until use. Human apolipoprotein-E purified protein (Chemicon International, Inc., Temecula, Calif.) was reconstituted in serum free media and added to cells. The double stranded polyribonucleotide, polyinosinic:polycytidylic acid (poly I:C potassium salt, Sigma Chemical Co., St. Louis, Mo.) was also reconstituted into serum free media and used to stimulate nitric oxide (NO) production as described by J. Snell et al., Journal of Leukocyte Biology, 62, 369 (1997).
# Measurement of Nitric Oxide (NO): After treatment, conditioned media was removed from cells and the level of nitrite, which is a stable end-product of NO release in biological systems, measured using the Griess reaction [Colton, C., supra]. Briefly, conditioned media were transferred to a new 96 well microtiter plate and an equal volume of Griess reagents were added to each well. After 10 minutes of incubation at room temperature, color development was assessed at 550 nm using a plate reader. Nitrite levels are presented as μM/well which contained 40,000 cells and an average (±SEM) obtained for at least 4 wells assayed per experimental condition for each of at least 4 individual donors. Treatment with the nitric oxide synthase (NOS) inhibitor, N-G-methyl-l-arginine (L-NMMA) was used to determine the level of NOS-mediated NO production. Statistical significance was determined using a one way analysis of variance (ANOVA).
compound,measurement,setting,value
"CNC(=N)NCCC[C@H](N)C(=O)O [L-NMMA, N-G-methyl-l-arginine]",effect of NOS inhibitor on nitrite levels,"L-NMMA added to APOE plus poly I:C stimulated MDMs, data not shown",reduced nitrite levels to those seen in the unstimulated controls; also recorded: inhibitable
"APOE: Human apolipoprotein-E purified protein (Chemicon International), reconstituted in serum free media",overall increase in nitrite levels compared to untreated or APOE-alone treated MDMs,10 nM APOE together with 50 μg/ml poly I:C,282%
same,increase in nitrite levels compared to poly I:C alone,"10 nM APOE together with 50 μg/ml poly I:C, 5 days, p<0.009",68%
same,nitrite levels compared to untreated controls,"APOE alone, 1 nM to 100 nM, 5 days, gamma-IFN-primed MDMs",no significant increase
same,NO released compared to unprimed cells,APOE and poly I:C,~3 fold
Aβ 1-28: non-toxic amyloid-βeta peptide fragment 1-28 (Bachem),nitrite levels compared to poly I:C treatment alone,5 days,same result
same,change in nitrite levels compared to untreated human MDMs,"5 days, gamma-IFN-primed MDMs",no significant change
"Aβ 1-40: toxic amyloid-βeta peptide 1-40 fragment of APP (Bachem), aggregated 48 h",nitrite levels compared to untreated control MDMs,Aβ 1-40 and APOE in the absence of poly I:C,no significant effect
same,nitrite levels compared to poly I:C treatment alone,5 days,no significant difference
same,change in nitrite levels compared to untreated human MDMs,"5 days, gamma-IFN-primed MDMs",not significantly different; also recorded: no significant change
same,nitrite levels compared to poly I:C alone,"Aβ peptide combined with 50 μg/ml poly I:C, 5 days",not significantly different
"boiled APOE: APOE denatured by boiling, control for non-denatured APOE",nitrite levels compared to poly I:C alone,"boiled (denatured) APOE together with poly I:C, data not shown",unable to increase NO production
polyinosinic:polycytidylic acid [poly I:C],increase in nitrite levels compared to untreated controls,"gamma-IFN-primed MDMs, 50 μg/ml poly I:C alone, 5 days",126%
